Reference: ChEMBL document CHEMBL1201862, “PubChem BioAssay data set” (2004)
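All cell lines were grown in 96-well plates and treated with compound for 48 hours. GI50: concentration for 50% inhibition of growth.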 The source made the active and inactive calls. Cut-off read from the data, not from the text of the source: active = GI50 up to about 1.1 µM and inactive = higher.

Columns and labels:
Test in all cases: NCI anticancer screen, dose series, 48 h
[1] = tested on: SF-295
[2] = tested on: SK-MEL-28
[3] = tested on: SN12C
[4] = tested on: HOP-92
[5] = tested on: HL-60
[6] = tested on: ACHN
[7] = tested on: RPMI-8226
[8] = tested on: UACC-62
[9] = tested on: SK-MEL-5
[10] = tested on: NCI-H522
[11] = tested on: OVCAR-4
[12] = tested on: CAKI-1
[13] = tested on: EKVX
[14] = tested on: K562
[15] = tested on: Malme-3M
[16] = tested on: NCI-H23
[17] = tested on: HCC 2998
[18] = tested on: SK-MEL-2
[19] = tested on: TK-10
[20] = tested on: RXF 393

Structure (SMILES) | GI50 [1] | GI50 [2] | GI50 [3] | GI50 [4] | GI50 [5] | GI50 [6] | GI50 [7] | GI50 [8] | GI50 [9] | GI50 [10] | GI50 [11] | GI50 [12] | GI50 [13] | GI50 [14] | GI50 [15] | GI50 [16] | GI50 [17] | GI50 [18] | GI50 [19] | GI50 [20]
CC1(C)C[C@H]2C=C(C=O)[C@]34C[C@]3(C(=O)OC4O)[C@H]2C1 (stereo not given in full) | 1.55 µM (inactive) | 2.92 µM (inactive) | 3.86 µM (inactive) | 2.17 µM (inactive) | 1.92 µM (inactive) | 1.53 µM (inactive) | 4.54 µM (inactive) | 1.97 µM (inactive) | 1.63 µM (inactive) | 0.443 µM (active) | 2.55 µM (inactive) | 1.59 µM (inactive) | 1.61 µM (inactive) | 4.58 µM (inactive) | 1.73 µM (inactive) | 1.66 µM (inactive) | 2.95 µM (inactive) | 1.72 µM (inactive) | 1.77 µM (inactive) | 
OCc1ccccc1C1CSCSC1 | > 100 µM (inactive) | > 100 µM (inactive) | > 100 µM (inactive) |  | > 100 µM (inactive) | > 100 µM (inactive) |  | > 100 µM (inactive) | > 100 µM (inactive) | > 100 µM (inactive) | > 100 µM (inactive) |  |  | > 100 µM (inactive) | > 100 µM (inactive) |  |  | > 100 µM (inactive) | > 100 µM (inactive) | > 100 µM (inactive)
CC1=C(C(=O)Nc2ccccc2)C(c2ccc3c(c2)OCO3)C(C(=O)Nc2ccccc2)=C(C)N1 | 35.3 µM (inactive) | 31.6 µM (inactive) | 34.2 µM (inactive) |  | 18.1 µM (inactive) | 33.7 µM (inactive) | 23.1 µM (inactive) | 30.1 µM (inactive) | 33.7 µM (inactive) | 17 µM (inactive) | 21.6 µM (inactive) | 31.3 µM (inactive) | 53.3 µM (inactive) | 17.5 µM (inactive) | 62.1 µM (inactive) | 37.2 µM (inactive) | 44.6 µM (inactive) | 28.8 µM (inactive) | 59.7 µM (inactive) | 11.1 µM (inactive)
Cc1[nH]nc(-c2ccon2)c1N=O | 18.7 µM (inactive) | 20.2 µM (inactive) | 26.7 µM (inactive) | 14.2 µM (inactive) | 12.1 µM (inactive) | 15 µM (inactive) | 3.78 µM (inactive) | 17.9 µM (inactive) | 18.2 µM (inactive) | 20 µM (inactive) | 17.5 µM (inactive) | 25.8 µM (inactive) | 16.7 µM (inactive) | 18.5 µM (inactive) | 20.7 µM (inactive) | 19.3 µM (inactive) |  | 34.3 µM (inactive) | 18.7 µM (inactive) | 34.3 µM (inactive)
CC(C)CCNC(=O)c1ccc(CNC(=O)/C=C/c2ccc(OCc3ccccc3)cc2)cc1 | > 100 µM (inactive) | > 100 µM (inactive) | > 100 µM (inactive) | > 100 µM (inactive) |  | > 100 µM (inactive) | > 100 µM (inactive) | > 100 µM (inactive) | > 100 µM (inactive) |  | > 100 µM (inactive) | > 100 µM (inactive) |  | > 100 µM (inactive) |  | > 100 µM (inactive) | > 100 µM (inactive) | > 100 µM (inactive) |  | > 100 µM (inactive)
CC1=C2[C@@H](c3ccccc3)C3C=CC2(C=C3C(F)(F)F)N(C(=O)NC2CCCCC2)C1=O (stereo not given in full) | > 100 µM (inactive) | > 100 µM (inactive) | > 100 µM (inactive) | > 100 µM (inactive) | 14.8 µM (inactive) | > 100 µM (inactive) |  | > 100 µM (inactive) | 43.5 µM (inactive) |  | > 100 µM (inactive) | 51.8 µM (inactive) | 69 µM (inactive) | 36.6 µM (inactive) | > 100 µM (inactive) | 59.8 µM (inactive) | 38.9 µM (inactive) |  | > 100 µM (inactive) | > 100 µM (inactive)
N/C(S)=N/N=C/c1ccc(O)cn1 | 20.4 µM (inactive) | 30.1 µM (inactive) | 5.35 µM (inactive) | 4.68 µM (inactive) | 4.12 µM (inactive) | 1.73 µM (inactive) | 10.7 µM (inactive) |  | 5.65 µM (inactive) |  |  |  | 14.5 µM (inactive) | 4.99 µM (inactive) | 7.55 µM (inactive) | 6.11 µM (inactive) | 13.6 µM (inactive) |  | 105 µM (inactive) | 
CCCCN(CC)c1nc(C)nc2c1c(C)c(C)n2-c1c(C)cc(C)cc1C [ANTALARMIN] | 14.3 µM (inactive) | 15.8 µM (inactive) | 22 µM (inactive) | 9.35 µM (inactive) | 4.1 µM (inactive) | 14.9 µM (inactive) | 7.87 µM (inactive) |  | 5.21 µM (inactive) | 12.8 µM (inactive) | 16.3 µM (inactive) | 13.9 µM (inactive) | 14.2 µM (inactive) | 12.5 µM (inactive) | 15.9 µM (inactive) | 14.5 µM (inactive) |  | 12.9 µM (inactive) | 17.4 µM (inactive) | 6.93 µM (inactive)
